Assay results from ChEMBL document CHEMBL1909046, “DrugMatrix in vitro pharmacology data”.
pIC50, pKi: −log10 of the molar value.

Columns and labels:
[1] = molecular target: Sodium-dependent noradrenaline transporter (Homo sapiens, UniProt P23975); test: DRUGMATRIX: Norepinephrine Transporter radioligand binding (ligand: [125I] RTI-55); format: cell membranes, MDCK, Membrane; settings: Not Active = under 50% inhibition at 10 µM; for IC50: mdck
[2] = molecular target: T1, 5-hydroxytryptamine receptor 2C (Homo sapiens, UniProt P28335); test: DRUGMATRIX: Serotonin (5-Hydroxytryptamine) 5-HT2C radioligand binding (ligand: [3H] Mesulergine); format: cell membranes, CHO-K1, Membrane; settings: cho-k1; Not Active = under 50% inhibition at 10 µM
T1 sequence (P28335 whole entry): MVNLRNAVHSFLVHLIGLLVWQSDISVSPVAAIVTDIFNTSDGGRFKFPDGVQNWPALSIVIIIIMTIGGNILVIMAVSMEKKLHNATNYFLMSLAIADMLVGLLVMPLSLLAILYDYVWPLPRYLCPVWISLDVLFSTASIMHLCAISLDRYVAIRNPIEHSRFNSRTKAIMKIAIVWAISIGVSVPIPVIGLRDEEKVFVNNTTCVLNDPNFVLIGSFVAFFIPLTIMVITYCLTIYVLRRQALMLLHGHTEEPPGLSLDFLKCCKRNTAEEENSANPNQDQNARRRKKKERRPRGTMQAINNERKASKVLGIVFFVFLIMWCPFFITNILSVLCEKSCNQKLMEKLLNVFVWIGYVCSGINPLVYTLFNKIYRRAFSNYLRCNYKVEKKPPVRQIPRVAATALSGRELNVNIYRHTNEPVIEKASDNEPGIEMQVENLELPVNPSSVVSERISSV

[3] = molecular target: T2, Substance-K receptor (Homo sapiens, UniProt P21452); format: cell membranes, CHO, Membrane; settings: for IC50: cho; for all read-outs here: in other assays of this panel Not Active means under 50% inhibition at 10 µM
T2 sequence (P21452 whole entry): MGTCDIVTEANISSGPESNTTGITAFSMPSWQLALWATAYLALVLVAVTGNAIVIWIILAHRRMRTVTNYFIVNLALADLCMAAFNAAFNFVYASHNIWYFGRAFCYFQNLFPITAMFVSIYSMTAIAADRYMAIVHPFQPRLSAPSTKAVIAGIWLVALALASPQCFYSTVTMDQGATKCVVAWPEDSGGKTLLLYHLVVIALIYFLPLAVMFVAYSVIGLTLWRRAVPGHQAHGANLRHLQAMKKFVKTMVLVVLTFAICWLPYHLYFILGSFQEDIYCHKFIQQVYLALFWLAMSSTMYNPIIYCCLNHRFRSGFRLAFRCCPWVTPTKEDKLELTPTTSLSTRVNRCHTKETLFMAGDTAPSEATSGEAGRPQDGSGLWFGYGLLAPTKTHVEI

[4] = DRUGMATRIX: GABAA, Muscimol, Central radioligand binding (ligand: [3H] Muscimol); format: cell membranes, Rattus norvegicus, Wistar, Brain, Membrane; settings: Not Active = under 50% inhibition at 10 µM
[5] = molecular target: Histamine H2 receptor (Homo sapiens, UniProt P25021); format: cell membranes, CHO-K1, Membrane; settings: cho-k1; note: in other assays of this panel Not Active means under 50% inhibition at 10 µM
Chain of Histamine H2 receptor (P25021 whole entry): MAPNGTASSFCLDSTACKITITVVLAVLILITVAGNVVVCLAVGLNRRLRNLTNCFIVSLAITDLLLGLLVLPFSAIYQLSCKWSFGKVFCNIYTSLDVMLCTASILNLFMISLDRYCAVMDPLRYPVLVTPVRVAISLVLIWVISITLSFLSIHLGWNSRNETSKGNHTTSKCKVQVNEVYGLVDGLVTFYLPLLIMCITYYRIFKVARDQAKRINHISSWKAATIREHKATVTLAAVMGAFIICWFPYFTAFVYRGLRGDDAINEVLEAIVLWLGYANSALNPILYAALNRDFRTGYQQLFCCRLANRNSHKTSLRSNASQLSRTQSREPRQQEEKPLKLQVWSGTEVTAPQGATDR

[6] = molecular target: Melanocortin receptor 3 (Homo sapiens, UniProt P41968); format: cell membranes, Membrane; settings: hek293; note: in other assays of this panel Not Active means under 50% inhibition at 10 µM
Chain of Melanocortin receptor 3 (P41968 whole entry): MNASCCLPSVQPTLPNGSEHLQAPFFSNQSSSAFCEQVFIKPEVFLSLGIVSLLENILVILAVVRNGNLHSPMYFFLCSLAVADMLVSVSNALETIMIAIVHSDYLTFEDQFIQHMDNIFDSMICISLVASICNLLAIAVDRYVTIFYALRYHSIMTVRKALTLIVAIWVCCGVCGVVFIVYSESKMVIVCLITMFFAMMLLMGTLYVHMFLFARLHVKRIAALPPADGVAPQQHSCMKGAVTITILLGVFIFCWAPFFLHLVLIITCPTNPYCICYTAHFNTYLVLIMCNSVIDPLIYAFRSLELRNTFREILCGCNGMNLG

[7] = molecular target: T3, Cathepsin G (Homo sapiens, UniProt P08311); format: tissue-based; settings: neutrophil;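 note: inhibition of Cathepsin G enzyme activity, tested on an AMC-conjugated peptide substrate; in other assays of this panel Not Active means under 50% inhibition at 10 µM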
T3 sequence (P08311 whole entry): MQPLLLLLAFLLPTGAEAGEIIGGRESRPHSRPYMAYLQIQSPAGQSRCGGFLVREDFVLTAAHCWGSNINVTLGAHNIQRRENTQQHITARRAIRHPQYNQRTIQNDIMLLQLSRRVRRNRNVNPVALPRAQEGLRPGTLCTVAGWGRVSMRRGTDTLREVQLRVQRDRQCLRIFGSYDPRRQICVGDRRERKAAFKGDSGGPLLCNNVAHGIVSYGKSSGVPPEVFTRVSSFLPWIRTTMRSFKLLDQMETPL

Chain of Sodium-dependent noradrenaline transporter (P23975 whole entry): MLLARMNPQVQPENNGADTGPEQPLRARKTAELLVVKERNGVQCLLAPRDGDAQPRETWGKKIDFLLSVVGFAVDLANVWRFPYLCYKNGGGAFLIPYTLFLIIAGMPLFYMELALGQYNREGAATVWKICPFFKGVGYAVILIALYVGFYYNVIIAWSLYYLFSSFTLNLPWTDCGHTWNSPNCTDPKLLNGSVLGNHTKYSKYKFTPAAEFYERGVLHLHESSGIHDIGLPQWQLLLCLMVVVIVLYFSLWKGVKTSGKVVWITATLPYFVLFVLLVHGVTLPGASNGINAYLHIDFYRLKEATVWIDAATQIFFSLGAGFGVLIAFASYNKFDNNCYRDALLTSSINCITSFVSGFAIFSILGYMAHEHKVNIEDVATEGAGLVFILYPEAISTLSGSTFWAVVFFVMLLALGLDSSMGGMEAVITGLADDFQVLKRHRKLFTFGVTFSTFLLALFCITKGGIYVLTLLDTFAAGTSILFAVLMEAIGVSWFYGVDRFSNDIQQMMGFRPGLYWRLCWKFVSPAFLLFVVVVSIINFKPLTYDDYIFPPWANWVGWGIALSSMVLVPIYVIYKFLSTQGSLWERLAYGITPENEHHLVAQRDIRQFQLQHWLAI

CC[C@H](C)C(=O)O[C@H]1C[C@@H](C)C=C2C=C[C@H](C)[C@H](CC[C@@H]3C[C@@H](O)CC(=O)O3)[C@H]21 [LOVASTATIN]
pIC50 ([1]; read-out: IC50): 5.06 | pKi ([1]; read-out: Ki): 5.06 | IC50 [2]: Not Active | pIC50 ([3]; read-out: IC50): 4.55 | pKi ([3]; read-out: Ki): 5.03 | IC50 [4]: Not Active | Ki [4]: Not Active | IC50 [5]: Not Active | IC50 [6]: Not Active | IC50 [7]: Not Active

CC[C@H](C)C(=O)O[C@H]1C[C@H](O)C=C2C=C[C@H](C)[C@H](CC[C@@H](O)C[C@@H](O)CC(=O)O)[C@H]21 [PRAVASTATIN]
IC50 [1]: Not Active | IC50 [2]: Not Active | IC50 [3]: Not Active | IC50 [4]: Not Active | Ki [4]: Not Active | IC50 [5]: Not Active | IC50 [6]: Not Active | IC50 [7]: Not Active

CCOC(=O)n1ccn(C)c1=S [CARBIMAZOLE]
IC50 [1]: Not Active | IC50 [2]: Not Active | IC50 [3]: Not Active | IC50 [4]: Not Active | Ki [4]: Not Active | IC50 [5]: Not Active | IC50 [6]: Not Active | IC50 [7]: Not Active
